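Exposure lasted 48 hours, with cells grown in 96-well plates and compounds tested at five concentrations. GI50 marks 50% less growth. At the TGI there is no net growth.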

Some test systems named below: HCC-2998 colon; NCI-H522 lung; 786-0 renal; OVCAR-3 ovarian; SW-620 colon; NCI-H460 lung; SK-MEL-5 melanoma; T-47D breast; UO-31 renal; OVCAR-8 ovarian.
Holding throughout (assay): NCI tumour cell line growth inhibition, 48 h

For the compound `O=Nc1c(-c2cccc([N+](=O)[O-])c2)nc2ncccn12`, the GI50 with HCC-2998 colon is 15.2 µM; in the assay with NCI-H522 lung, 10.6 µM; in the assay on 786-0 renal it was 17.6 µM; with OVCAR-3 ovarian, 3.22 µM; in the assay on SW-620 colon, 2.08 µM; in the assay with NCI-H460 lung, 17.8 µM. Moreover, the GI50 in the assay with SK-MEL-5 melanoma is 15.2 µM; with T-47D breast, 6.29 µM; with UO-31 renal, 5.66 µM; with OVCAR-8 ovarian, 8.9 µM. For the same compound, the TGI with HCC-2998 colon is 28.9 µM; with NCI-H522 lung it was 25.1 µM; in the assay with 786-0 renal, 54.7 µM; in the assay with OVCAR-3 ovarian it was 12.5 µM; in the assay with SW-620 colon it was 6.03 µM; in the assay on NCI-H460 lung, 54.8 µM. Also, the TGI in the assay with SK-MEL-5 melanoma is 32.2 µM; with T-47D breast, 39.1 µM; with UO-31 renal, 30.3 µM; with OVCAR-8 ovarian it was 43.8 µM.
Turning to `Nc1nc(Cl)nc2c1ncn2C1O[C@H](CO)[C@@H](O)[C@@H]1F` (some centres undefined), the GI50 in the assay on HCC-2998 colon is 0.075 µM; with 786-0 renal, 0.092 µM; in the assay with OVCAR-3 ovarian, above 100 µM; with SW-620 colon, 0.888 µM; in the assay with NCI-H460 lung it was 0.37 µM; with SK-MEL-5 melanoma, 0.34 µM. Further, the GI50 was 6.94 µM in the assay on T-47D breast, 0.156 µM with UO-31 renal and 0.0423 µM with OVCAR-8 ovarian. The TGI with HCC-2998 colon was above 100 µM; with NCI-H522 lung, above 100 µM; with 786-0 renal, 0.486 µM; in the assay on OVCAR-3 ovarian, above 100 µM; in the assay on SW-620 colon, above 100 µM; with NCI-H460 lung, above 100 µM. Moreover, the TGI in the assay with SK-MEL-5 melanoma was above 100 µM; in the assay with T-47D breast it was above 100 µM; in the assay with UO-31 renal it was 1.24 µM; in the assay on OVCAR-8 ovarian, above 100 µM.
Turning to `COc1ccc(/C=C(/C(=O)N2CCNCC2)c2cc(OC)c(OC)c(OC)c2)cc1O`, the GI50 was 3.76 µM in the assay with HCC-2998 colon; 2.42 µM with NCI-H522 lung; 33.1 µM in the assay on 786-0 renal; 2.45 µM with OVCAR-3 ovarian; 3.69 µM in the assay with SW-620 colon; 3.42 µM with NCI-H460 lung. For the same compound, the GI50 is 4.71 µM in the assay with SK-MEL-5 melanoma, 6.71 µM in the assay with T-47D breast, 55.5 µM in the assay with UO-31 renal and 5.64 µM in the assay on OVCAR-8 ovarian. The TGI in the assay on HCC-2998 colon is above 100 µM; in the assay with NCI-H522 lung, 9.84 µM; with 786-0 renal, above 100 µM; in the assay with OVCAR-3 ovarian it was 7.1 µM; in the assay on SW-620 colon, above 100 µM; in the assay with NCI-H460 lung, above 100 µM. In addition, the TGI was 56.4 µM in the assay with SK-MEL-5 melanoma, above 100 µM in the assay on T-47D breast, above 100 µM in the assay on UO-31 renal and above 100 µM in the assay with OVCAR-8 ovarian.
For `CN(C)CCn1cc(-c2ccc3c(Nc4ccc(CC(=O)Nc5cccc(F)c5)cc4)ncnc3c2)cn1`, the GI50 is 1.77 µM in the assay with HCC-2998 colon; 1.32 µM in the assay with NCI-H522 lung; 1.42 µM in the assay with 786-0 renal; 1.6 µM in the assay with OVCAR-3 ovarian; 1.05 µM in the assay with SW-620 colon; 0.087 µM in the assay on NCI-H460 lung. Also, the GI50 in the assay on SK-MEL-5 melanoma was above 10 µM; in the assay with T-47D breast it was 1.41 µM; with UO-31 renal it was 5.67 µM; in the assay on OVCAR-8 ovarian, 1.6 µM. The TGI stood at 3.84 µM in the assay on HCC-2998 colon; 3.22 µM in the assay on NCI-H522 lung; 2.87 µM in the assay with 786-0 renal; 3.48 µM in the assay with OVCAR-3 ovarian; 2.91 µM in the assay on SW-620 colon; 2.49 µM in the assay with NCI-H460 lung. Besides, the TGI is above 10 µM in the assay on SK-MEL-5 melanoma, 4.54 µM in the assay on T-47D breast, above 10 µM in the assay on UO-31 renal and 6.39 µM in the assay with OVCAR-8 ovarian.
As to `Cc1nc2cc(O)c(O)cc2cc1Oc1ccc(NC(=O)Nc2ccc(Cl)c(Cl)c2)cc1`, the GI50 was 6.7 µM in the assay with HCC-2998 colon; 4.43 µM in the assay with NCI-H522 lung; 7.68 µM in the assay on 786-0 renal; 8.52 µM in the assay with OVCAR-3 ovarian; 4.8 µM with SW-620 colon; 6.95 µM in the assay with NCI-H460 lung. For the same compound, the GI50 in the assay on SK-MEL-5 melanoma was 5.94 µM; in the assay on T-47D breast, 11.6 µM; with UO-31 renal, 6.97 µM; with OVCAR-8 ovarian it was 5.77 µM. The TGI was 14.6 µM in the assay on HCC-2998 colon; 12.5 µM with NCI-H522 lung; 18.6 µM in the assay on 786-0 renal; 19.9 µM in the assay with OVCAR-3 ovarian; above 32.5 µM with SW-620 colon; 15.8 µM in the assay with NCI-H460 lung. For the same compound, the TGI in the assay on SK-MEL-5 melanoma was 14.2 µM; with T-47D breast, above 32.5 µM; in the assay with UO-31 renal it was 14.9 µM; with OVCAR-8 ovarian, above 32.5 µM.
On to `COC(=O)c1c(-c2ccccc2)csc1NC(=O)c1c(-c2ccccc2)noc1C`, for which the GI50 in the assay on HCC-2998 colon is above 21 µM; with NCI-H522 lung, 1.56 µM; with 786-0 renal it was 1.34 µM; in the assay on OVCAR-3 ovarian, 3.79 µM; in the assay on SW-620 colon it was 0.705 µM; in the assay with NCI-H460 lung, 0.177 µM. Also, the GI50 in the assay with SK-MEL-5 melanoma is 0.185 µM; with T-47D breast it was 3.41 µM; with UO-31 renal, 8.88 µM; with OVCAR-8 ovarian, 0.776 µM. In addition, the TGI in the assay on HCC-2998 colon was above 100 µM; with NCI-H522 lung it was above 26.3 µM; in the assay on 786-0 renal it was above 100 µM; in the assay on OVCAR-3 ovarian it was above 100 µM; in the assay on SW-620 colon it was above 100 µM; in the assay with NCI-H460 lung it was above 100 µM. The TGI in the assay with SK-MEL-5 melanoma, with T-47D breast, in the assay with UO-31 renal and in the assay with OVCAR-8 ovarian was above 100 µM in each case.
In the case of `O=C1NC(=NCc2ccccn2)S/C1=C\c1ccc2ncccc2c1`, the GI50 with HCC-2998 colon was 13.8 µM; with NCI-H522 lung it was 7.61 µM; with 786-0 renal, 13.4 µM; in the assay on OVCAR-3 ovarian, 12.6 µM; in the assay on SW-620 colon, 7.81 µM; in the assay with NCI-H460 lung, 9.07 µM. Also, the GI50 was 13 µM with SK-MEL-5 melanoma, 11.2 µM in the assay with T-47D breast, 11.3 µM with UO-31 renal and 14.4 µM in the assay on OVCAR-8 ovarian. The TGI with HCC-2998 colon was above 25 µM; in the assay on NCI-H522 lung, above 18.8 µM; in the assay on 786-0 renal, above 25 µM; with OVCAR-3 ovarian it was above 25 µM; in the assay on SW-620 colon it was above 25 µM; with NCI-H460 lung it was above 25 µM. Further, the TGI in the assay with SK-MEL-5 melanoma, in the assay on T-47D breast, with UO-31 renal and in the assay with OVCAR-8 ovarian was above 25 µM throughout.
